9 compounds from ChEMBL document CHEMBL1201862, “PubChem BioAssay data set” (2004) can be followed below.

Among the test systems are SNB-75; OVCAR-4; SK-MEL-28; SF-539; DLD-1; RPMI-8226; SNB-19; SR; M14; UACC-257; OVCAR-5; SF-295; MOLT-4; COLO 205; K562; CCRF-CEM; CAKI-1; KM12; DU-145; MCF7.
Holding throughout (experiment): NCI tumour cell line growth inhibition, 48 h

SMILES strings stand for the structures.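 96-well plates; 48 h exposure; 5 concentrations. Endpoints by linear interpolation between flanking doses. Not reached: highest tested concentration assigned. GI50 is the concentration that inhibits growth by half.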 Activity calls are given as the source filed them. Cut-off read from the data, not from the text of the source: active = GI50 up to about 1.1 µM and inactive = higher.

Regarding `O=C(O)C(CS)Nc1c2ccccc2nc2ccccc12` (stereo unspecified), the GI50 is > 100 µM (inactive) in the assay with SNB-75; 19.7 µM (inactive) in the assay on OVCAR-4; > 100 µM (inactive) in the assay with SK-MEL-28; 50 µM (inactive) in the assay on SF-539; 78.9 µM (inactive) with DLD-1; 48.2 µM (inactive) in the assay on RPMI-8226. Moreover, the GI50 is 61.1 µM (inactive) in the assay on SNB-19; 36.3 µM (inactive) in the assay on SR; 43.7 µM (inactive) with M14; 58.5 µM (inactive) in the assay on UACC-257; 53.5 µM (inactive) with OVCAR-5; 56.9 µM (inactive) with SF-295. For the same compound, the GI50 with MOLT-4 is 38.3 µM (inactive); with COLO 205, 37.7 µM (inactive); in the assay on K562, 49.7 µM (inactive); in the assay on CCRF-CEM, 79.3 µM (inactive); with CAKI-1 it was 44.7 µM (inactive); with KM12, 59.6 µM (inactive).
Take `O=P1(O)c2ccccc2Nc2cc(C(F)(F)F)ccc21`: the GI50 with SNB-75, in the assay with OVCAR-4, with SK-MEL-28, in the assay on SF-539, in the assay with DLD-1 and with RPMI-8226 was > 100 µM (inactive) each time. Moreover, the GI50 in the assay on SNB-19, in the assay with SR, with DU-145, with M14, with UACC-257 and with MCF7 was > 100 µM (inactive) each time. For the same compound, the GI50 in the assay with OVCAR-5, in the assay with SF-295, with MOLT-4, with COLO 205, in the assay on K562 and with CCRF-CEM was > 100 µM (inactive) in each case. Also, the GI50 in the assay with CAKI-1 and in the assay on KM12 was > 100 µM (inactive) throughout.
Consider `CC#CCC1CCC(OCC)=CC1=O` (stereo unspecified), for which the GI50 in the assay on SNB-75, in the assay on OVCAR-4, in the assay on SK-MEL-28, with SF-539, with DLD-1 and with RPMI-8226 was > 100 µM (inactive) each time. Moreover, the GI50 in the assay with SNB-19, in the assay on SR, in the assay on M14, in the assay on UACC-257, with OVCAR-5 and in the assay with SF-295 was > 100 µM (inactive) each time. Besides, the GI50 in the assay on MOLT-4, with COLO 205, in the assay on K562, in the assay on CCRF-CEM, in the assay on CAKI-1 and in the assay with KM12 was > 100 µM (inactive) in each case.
On to `c1ccc2c(c1)C1=NCCN1c1ccccc1-2`, for which the GI50 is 3.47 µM (inactive) in the assay with SNB-75; 2.91 µM (inactive) with OVCAR-4; 3.91 µM (inactive) in the assay with SK-MEL-28; 2.78 µM (inactive) with SF-539; 1.77 µM (inactive) with DLD-1; 2.32 µM (inactive) in the assay on RPMI-8226. The GI50 in the assay on SNB-19 is 3.46 µM (inactive); in the assay on SR it was 0.502 µM (active); in the assay with M14, 4.01 µM (inactive); in the assay with UACC-257 it was 2.7 µM (inactive); in the assay on OVCAR-5, 3.47 µM (inactive); with SF-295, 5.09 µM (inactive). Further, the GI50 is 1.85 µM (inactive) with MOLT-4; 1.38 µM (inactive) in the assay with COLO 205; 1.64 µM (inactive) in the assay on CCRF-CEM; 2.6 µM (inactive) with CAKI-1; 2.96 µM (inactive) in the assay on KM12.
Regarding `O=C(/C=C/c1ccccc1O)C(c1ccccc1)c1ccccc1`, the GI50 with SNB-75 was 20.1 µM (inactive); in the assay on OVCAR-4, 48.5 µM (inactive); in the assay on SK-MEL-28 it was > 100 µM (inactive); in the assay with SF-539, > 100 µM (inactive); in the assay with DLD-1, > 100 µM (inactive); with RPMI-8226 it was 72.6 µM (inactive). Moreover, the GI50 with SNB-19, in the assay with SR, in the assay on M14, with UACC-257, in the assay with OVCAR-5 and with SF-295 was > 100 µM (inactive) throughout. Further, the GI50 with MOLT-4 was > 100 µM (inactive); with COLO 205, 39.3 µM (inactive); with K562, 78.5 µM (inactive); with CCRF-CEM, 60.8 µM (inactive); in the assay on CAKI-1 it was > 100 µM (inactive); with KM12, 98.9 µM (inactive).
As to `CS(=O)(=O)C1S(=O)(=O)OCCOS1(=O)=O`, the GI50 in the assay on SNB-75, in the assay with OVCAR-4, in the assay with SK-MEL-28, in the assay on SF-539, with DLD-1 and in the assay with RPMI-8226 was > 100 µM (inactive) each time. In addition, the GI50 with SNB-19, in the assay on SR, in the assay on M14, in the assay on UACC-257, in the assay with OVCAR-5 and in the assay on SF-295 was > 100 µM (inactive) throughout. For the same compound, the GI50 in the assay on MOLT-4, in the assay on COLO 205, in the assay with K562, in the assay on CAKI-1 and in the assay with KM12 was > 100 µM (inactive) in each case.
For the compound `Ic1ncnc2c1ncn2C1CCCO1` (stereo unspecified), the GI50 with SNB-75 is 35.8 µM (inactive); in the assay with OVCAR-4, > 100 µM (inactive); in the assay on SK-MEL-28 it was > 100 µM (inactive); in the assay on SF-539, > 100 µM (inactive); in the assay with DLD-1, > 100 µM (inactive); in the assay with RPMI-8226, > 100 µM (inactive). For the same compound, the GI50 in the assay on SNB-19, in the assay with SR, in the assay on M14, in the assay with UACC-257, in the assay with OVCAR-5 and in the assay with SF-295 was > 100 µM (inactive) in each case. The GI50 in the assay with MOLT-4, with COLO 205, with K562, with CCRF-CEM, in the assay with CAKI-1 and with KM12 was > 100 µM (inactive) throughout.
`COc1cc(C2c3cc4c(cc3[C@@H](Nc3ccc(C#N)cc3)C3COC(=O)[C@H]23)OCO4)cc(OC)c1O` (stereo partly specified): the GI50 in the assay on SNB-75 is 2.6 µM (inactive); with OVCAR-4 it was 3.43 µM (inactive); with SK-MEL-28 it was 6.97 µM (inactive); in the assay with SF-539, 1.14 µM (inactive); in the assay on DLD-1 it was 1.27 µM (inactive); in the assay with RPMI-8226, 0.155 µM (active). The GI50 is 1.39 µM (inactive) with SNB-19; 0.261 µM (active) in the assay with SR; 0.273 µM (active) with DU-145; 1.35 µM (inactive) in the assay with M14; 7.26 µM (inactive) with UACC-257; 0.881 µM (active) with MCF7. In addition, the GI50 with OVCAR-5 is 5.64 µM (inactive); in the assay on SF-295 it was 0.767 µM (active); in the assay on MOLT-4, 0.274 µM (active); in the assay with COLO 205, 6.38 µM (inactive); in the assay on K562, 0.462 µM (active); in the assay on CCRF-CEM it was 0.524 µM (active). Also, the GI50 with CAKI-1 is 0.436 µM (active); in the assay with KM12, 5.33 µM (inactive).
As to `COc1ccc(S(=O)(=O)N/N=C/C(=O)O)cc1`, the GI50 in the assay with SNB-75 was 708 µM (inactive); in the assay with OVCAR-4, 524 µM (inactive); in the assay with SK-MEL-28, 764 µM (inactive); in the assay with SF-539, 519 µM (inactive); in the assay on DLD-1, > 906 µM (inactive); in the assay with RPMI-8226, 269 µM (inactive). For the same compound, the GI50 is 706 µM (inactive) in the assay on SNB-19; 202 µM (inactive) in the assay with SR; 327 µM (inactive) in the assay with DU-145; 684 µM (inactive) in the assay on M14; 849 µM (inactive) in the assay on UACC-257; 409 µM (inactive) in the assay on MCF7. Moreover, the GI50 was 873 µM (inactive) in the assay on OVCAR-5; 465 µM (inactive) with SF-295; 193 µM (inactive) with MOLT-4; 1010 µM (inactive) with COLO 205; 501 µM (inactive) with K562; 176 µM (inactive) in the assay on CCRF-CEM. Also, the GI50 in the assay on CAKI-1 is 458 µM (inactive); in the assay with KM12, 557 µM (inactive).
